Consider 38 compounds from ChEMBL document CHEMBL3822429, “Identification of novel EZH2 inhibitors through pharmacophore-based virtual screening and biological assays” (Bioorg Med Chem Lett, 2016).

In test [1] the target is T1, Histone-lysine N-methyltransferase EZH2 (Homo sapiens, UniProt Q15910). The test is described as follows: Inhibition of PRC2 EZH2 sub unit (unknown origin) assessed as inhibition of SAM-mediated methyl transfer process at 50 uM preincubated for 15 mins followed by addition of H3K27me and [3H]SAM as substrate measured after 90 mins by radioactive methylation assay.
Target sequence in this assay (Q15910 whole entry, looked up): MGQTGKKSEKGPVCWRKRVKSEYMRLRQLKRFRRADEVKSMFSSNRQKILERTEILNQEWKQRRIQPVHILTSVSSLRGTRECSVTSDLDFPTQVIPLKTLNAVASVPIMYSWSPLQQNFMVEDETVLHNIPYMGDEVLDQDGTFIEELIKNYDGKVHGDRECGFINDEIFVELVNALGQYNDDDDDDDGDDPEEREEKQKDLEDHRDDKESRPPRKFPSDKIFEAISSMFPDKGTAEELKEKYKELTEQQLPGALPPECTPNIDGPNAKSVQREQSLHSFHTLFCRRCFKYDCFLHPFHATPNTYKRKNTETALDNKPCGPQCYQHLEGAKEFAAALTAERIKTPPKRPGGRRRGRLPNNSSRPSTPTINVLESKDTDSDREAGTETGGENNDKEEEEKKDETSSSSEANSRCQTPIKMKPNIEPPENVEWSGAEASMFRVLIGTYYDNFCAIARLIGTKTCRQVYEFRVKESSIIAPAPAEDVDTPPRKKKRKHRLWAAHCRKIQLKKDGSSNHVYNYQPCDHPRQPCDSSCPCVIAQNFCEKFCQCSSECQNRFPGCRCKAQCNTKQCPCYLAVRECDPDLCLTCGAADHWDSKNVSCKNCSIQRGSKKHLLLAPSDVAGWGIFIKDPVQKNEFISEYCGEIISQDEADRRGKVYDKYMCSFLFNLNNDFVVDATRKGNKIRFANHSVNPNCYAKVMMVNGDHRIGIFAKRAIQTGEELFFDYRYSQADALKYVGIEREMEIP
For test [2], the target named is DNA (cytosine-5)-methyltransferase 1 (Homo sapiens) (UniProt P26358). The test is described as follows: Inhibition of human DNMT1 assessed as DNA methylation at 50 uM preincubated for 15 mins followed by addition of poly(dI-dC) and [3H]SAM as substrate measured after 2 hrs by radioactive methylation assay.
Test [3] is described as follows: Antiproliferative activity against human Toledo cells expressing wild-type EZH2 assessed as growth inhibition measured after 72 hrs by AlamaBlue assay.
A further test deals with DB. The test can be described thus: Antiproliferative activity against human DB cells expressing EZH2 mutant assessed as growth inhibition measured after 72 hrs by AlamaBlue assay.
Test [4] deals with T1, Histone-lysine N-methyltransferase EZH2. The test can be described thus: Inhibition of PRC2 EZH2 sub unit (unknown origin) assessed as inhibition of SAM-mediated methyl transfer process preincubated for 15 mins followed by addition of H3K27me and [3H]SAM as substrate measured after 90 mins by radioactive methylation assay.
Target sequence in this assay (Q15910 whole entry): as the sequence (Q15910 whole entry, looked up) above

What is called inhibition is the relative decrease from the control value, in per cent. By IC50 is commonly meant the concentration that inhibits the measured activity by half.

Sequence of DNA (cytosine-5)-methyltransferase 1 (Homo sapiens) (P26358 whole entry): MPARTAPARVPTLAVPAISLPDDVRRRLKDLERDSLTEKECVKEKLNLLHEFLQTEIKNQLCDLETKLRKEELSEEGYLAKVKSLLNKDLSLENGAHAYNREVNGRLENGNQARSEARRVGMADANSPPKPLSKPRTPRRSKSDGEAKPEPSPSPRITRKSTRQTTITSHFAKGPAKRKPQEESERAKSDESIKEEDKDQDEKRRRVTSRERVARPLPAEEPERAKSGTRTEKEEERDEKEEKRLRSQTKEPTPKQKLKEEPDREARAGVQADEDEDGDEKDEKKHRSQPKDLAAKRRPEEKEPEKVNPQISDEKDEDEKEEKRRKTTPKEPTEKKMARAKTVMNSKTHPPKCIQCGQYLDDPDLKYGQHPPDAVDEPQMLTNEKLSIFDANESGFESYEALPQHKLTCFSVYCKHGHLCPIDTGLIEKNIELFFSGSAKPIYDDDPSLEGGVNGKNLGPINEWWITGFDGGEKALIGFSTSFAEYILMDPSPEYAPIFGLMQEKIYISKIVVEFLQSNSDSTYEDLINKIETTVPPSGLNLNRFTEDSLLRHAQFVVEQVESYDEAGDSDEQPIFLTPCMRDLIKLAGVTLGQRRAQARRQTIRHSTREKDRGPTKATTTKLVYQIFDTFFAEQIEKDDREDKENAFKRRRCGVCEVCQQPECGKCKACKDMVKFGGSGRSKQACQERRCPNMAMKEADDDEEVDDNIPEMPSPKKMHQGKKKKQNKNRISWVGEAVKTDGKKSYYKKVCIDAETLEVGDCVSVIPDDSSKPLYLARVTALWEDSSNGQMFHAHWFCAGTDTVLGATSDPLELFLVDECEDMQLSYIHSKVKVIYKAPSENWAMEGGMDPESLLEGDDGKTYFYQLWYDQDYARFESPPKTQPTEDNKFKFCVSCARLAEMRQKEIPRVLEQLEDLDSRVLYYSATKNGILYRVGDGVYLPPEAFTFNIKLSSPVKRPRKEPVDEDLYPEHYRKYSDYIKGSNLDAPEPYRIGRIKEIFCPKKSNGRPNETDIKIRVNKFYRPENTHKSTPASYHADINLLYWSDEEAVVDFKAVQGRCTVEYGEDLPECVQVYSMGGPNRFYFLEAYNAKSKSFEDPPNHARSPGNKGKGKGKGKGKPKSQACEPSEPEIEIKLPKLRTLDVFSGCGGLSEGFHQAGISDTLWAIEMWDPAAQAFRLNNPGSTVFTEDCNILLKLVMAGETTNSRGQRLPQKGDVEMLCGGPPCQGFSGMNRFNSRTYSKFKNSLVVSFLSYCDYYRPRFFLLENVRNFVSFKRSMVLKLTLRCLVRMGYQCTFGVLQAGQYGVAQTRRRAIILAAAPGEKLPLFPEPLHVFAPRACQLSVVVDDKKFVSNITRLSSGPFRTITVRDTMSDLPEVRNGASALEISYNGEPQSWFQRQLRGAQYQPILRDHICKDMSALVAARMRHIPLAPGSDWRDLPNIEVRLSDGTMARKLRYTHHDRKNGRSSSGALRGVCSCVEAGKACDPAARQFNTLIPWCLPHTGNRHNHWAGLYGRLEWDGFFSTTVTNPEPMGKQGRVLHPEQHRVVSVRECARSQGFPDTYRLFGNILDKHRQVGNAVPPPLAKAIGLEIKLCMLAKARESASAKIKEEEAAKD

As for `NS(=O)(=O)c1ccc(NC(=O)CN2C(=O)c3cccc4cccc(c34)C2=O)cc1`, the inhibition in test [1] amounted to 14%.
As to `Cc1cc(C)nc(NC2=NCCS2)n1`, the inhibition in test [1] was 16%.
For the compound `Cc1ccc2c(C)nc(Nc3nc(O)cc(CSc4nnnn4-c4ccccc4)n3)nc2c1`, the inhibition in test [1] is 19%.
On to `OCCNCC(O)Cn1c2ccc(Br)cc2c2cc(Br)ccc21` (configuration not stated), for which the inhibition in test [1] was -9%.
On to `O=C1C(Cc2ccccc2)=C(O)c2cccc3c2C1=C(O)CC3`, for which the inhibition in test [1] was determined as 11%.
On to `Cc1cc(C)nc(Nc2n[nH]c(-c3ccccc3Cl)n2)n1`, for which the inhibition in test [1] turned out to be 17%.
As to `N#C/C(=C/c1ccc(-c2ccc(C(N)=O)cc2)o1)c1nc2ccccc2[nH]1`, the inhibition in test [1] worked out at 41%.
Take `Cc1ccc(C(=O)CSc2nc3sc4c(c3c(=O)n2-c2ccccc2)CCCC4)s1`: in test [1], the inhibition is -1%.
For the compound `Cc1ccc2nc(Nc3nc(O)cc(CSc4nnnn4-c4ccccc4)n3)nc(C)c2c1`, in test [1], the inhibition is 28%.
The same measure, in the same setting: in the case of `Cn1c(=O)cc2c3c(c(N4CCOCC4)ccc31)C(=O)c1ccccc1-2` it was 9%; in that of `Cc1ccc2c(c1)C1CN(C)CCC1N2C(=O)Cc1ccc(Cl)cc1` (configuration not stated), 4%; in that of `O=C(/C(=C(/[O-])c1ccc(Cl)cc1)[n+]1ccc2ccccc2c1)c1ccccc1`, 2%.
Turning to `CC12CCCc3c(-c4ncn[nH]4)c(-c4ccccc4)c(=O)n(c31)-c1ccccc12` (configuration not stated), in test [1], the inhibition is 1%.
Consider `O=C(c1cnn2c1NC(c1ccc(Br)cc1)CC2C(F)(F)F)N1CCN2CCCC2C1` (configuration not stated), for which the inhibition in test [1] is -2%.
Regarding `COc1ccc2nc(Nc3nc(O)cc(CSc4nnnn4-c4ccccc4)n3)nc(C)c2c1`, the inhibition is 0% in test [2] and 72% in test [1]. The IC50 in test [3] worked out at 24.1 µM; in the test on DB, 32.8 µM; in test [4], 22.6 µM.
In the case of `O=c1c(-c2ccccc2)c(O)c2c(n1-c1ccccc1)CCCC2`, in test [1], the inhibition was -2%.
In the case of `COc1ccc(C(=O)C(OC(=O)c2ccc(C)c(NC(C)=O)c2)c2ccccc2)cc1` (configuration not stated), the inhibition in test [1] was 9%.
Turning to `O=C(NC1CCSC1=O)c1cccc(C(=O)NC2CCSC2=O)c1` (configuration not stated), the inhibition in test [1] was 6%.
Still for that read-out and setting: in the case of `O=C1CC(=C2c3ccccc3-c3ccccc32)C(=O)N1CCN1CCN(c2cccc(Cl)c2)CC1` it was 29%; in that of `NC(=O)c1ccc(N=C2C(=O)Nc3ccc([N+](=O)[O-])cc32)cc1`, 6%.
As for `Cc1cc(O)nc(Nc2ccccc2)n1`, the inhibition in test [1] was -2%.
On to `CCOC(=O)C[n+]1ccc2c([nH]c3ccccc32)c1C`, for which, in test [1], the inhibition was 7%.
On to `CC(=O)Nc1cc(C(=O)OC(C(=O)c2ccccc2)c2ccccc2)ccc1C` (configuration not stated), for which the inhibition in test [1] was 2%.
Same read-out and setting: in the case of `CCOc1ccc(NC(=N)Nc2nc(O)cc(CSc3nnnn3-c3ccccc3)n2)cc1` it was -1%; in that of `CC1=CC(C)(C)Oc2c1c(=O)n(-c1ccccc1)c(=S)n2-c1ccc(C)cc1`, 4%; in that of `Cc1ccc2c(c1)C1CN(C)CCC1N2C(=O)c1ccc2ccccc2c1` (configuration not stated), 0%.
As to `CN1c2ccccc2Oc2nnc(N3CCN(C(c4ccccc4)c4ccccc4)CC3)cc21`, the inhibition in test [1] is -7%.
For the compound `Cc1ccc2nc(N=C(N)N)nc(C)c2c1`, in test [1], the inhibition was 3%.
On the same count and under the same terms, with `COc1ccc(CN2CCN(c3cc(C)c(C#N)c4nc5ccccc5n34)CC2)cc1` the figure was 0%.
For the compound `CCN(CC)c1ccc2cc(-c3nnc(Nc4cc(OC)ccc4OC)o3)c(=O)oc2c1`, the inhibition in test [1] is 25%.
On the same count and under the same terms, in the case of `Cc1ccc(-n2nc3cc(C)c(NC(=O)NC(=O)Cc4ccccc4)cc3n2)cc1` it was 0%; in that of `N/N=C1/CCCc2c1[nH]c1ccc(F)cc21`, 18%; in that of `COc1ccc2nc(Nc3nc(O)cc(CSc4nnc(C)s4)n3)nc(C)c2c1`, -9%.
In the case of `O=C1c2ccccc2-c2cccc3c2c1cc1ccccc13`, the inhibition in test [1] came out at 34%.
As for `COc1ccc(-n2c(SCC(=O)c3ccc(Cl)cc3)nc3ccccc3c2=O)cc1`, in test [1], the inhibition was 5%.
Turning to `O=C1c2ccccc2NC(c2c[nH]nc2-c2ccccc2)N1O` (configuration not stated), in test [1], the inhibition came to 9%.
On the same count and under the same terms, with `Cn1c(-c2ccc(C=O)o2)nc2c3ccccc3c3ccccc3c21` the figure was 52%.
With `NC(=O)CCN1CCN(CCOC2Cc3cc(Cl)ccc3Sc3ccccc32)CC1` (configuration not stated), the inhibition in test [1] is -6%.
